# Experimental data as given in patent US6706686B2, “Inhibition of histone deacetylase as a treatment for cardiac hypertrophy” (The Regents of the University of Colorado, priority 2001, dated 2004).
# “Also recorded” adds a separate entry of the source.
# Legend:
# [1] = tested on: cardiomyocytes; assay: Protein synthesis (tritiated leucine, S6 ribosomal protein); type: cell-based, rat
# Protocol: FIG. 6. The effects of TSA treatment on the reorganization of the sarcomeres and protein synthesis. […] The graphs on the right show the content of S6 ribosome protein in cardiomyocytes after 24 hours co-treatment with PE and increasing concentrations of TSA or with serum and increasing concentrations of TSA.
# Protein synthesis. Cardiomyocytes were incubated with (1.0 μCi/ml; 172 Ci/mmol sp. activity) tritiated-leucine (ICN Biochemicals, Inc., Irvine, Calif.) in treated RPMI media (Invitrogen, Carlsbad, Calif.). After 6 hrs incubation, the cells were washed twice with 1× PBS, then incubated in 10% TCA on ice for 30 min. Afterwards, the cells were washed twice with 5% TCA, once with water, and then lysed in […]. Lysates were measured in one-sixth volume of scintillation fluid by a scintillation counter (Beckman, Fullerton, Calif.).
# S6 Ribosomal protocol. After blocking, cells were incubated in 1% BSA/1× PBS containing 50 μg/ml anti-S6 protein (Cell Signaling, […]) for 1 hr. After washing, the cells were incubated with IgG-HRP (Jackson Labs, […]) at a 1:400 dilution. The cells were then washed twice in 1% BSA/1× PBS, in 1× PBS, then blotted dry. Luminol (Pierce, Rockford, Ill.) was added and the chemiluminescence was detected in a Fusion reader (Perkin-Elmer/Packard).
# [2] = tested on: ANF locus / NRSE; conditions: prior data; cited from earlier work
compound,measurement,setting,value
"CC(/C=C/C(=O)NO)=C\[C@@H](C)C(=O)c1ccc(N(C)C)cc1 [TSA, Trichostatin A]","phenylephrine-stimulated protein synthesis, 6 hours",[1]; 6 hours co-culture with phenylephrine,had little effect on the stimulation of protein synthesis; also recorded: does not alter this increase
same,"protein synthesis induced by PE or serum, 24 hrs",[1]; 24 hrs co-treatment,antagonized the protein synthesis normally induced by PE or serum in a dose-dependent manner
same,ANF expression at low dose,[2],can induce the ANF expression
